We go through one compound from paper PMC7407621, “Enhancing a de novo enzyme activity by computationally-focused ultra-low-throughput screening” (Chemical Science, 2020).

This test deals with GNCA4-WT (GNCA4-W229D/F290W). Particulars: pH 7, 25 °C, 100 mM NaCl, 5% acetonitrile, His-tag.

Broadly, the Km is the concentration of substrate that gives half-maximal velocity.

In the case of `O=[N+]([O-])c1ccc2oncc2c1` [5-nitrobenzisoxazole], the Km turned out to be 3.7 ± 0.8 mM.
